Assay results taken from paper PMC9057948, “Identification, isolation, structural characterization, in silico toxicity prediction and in vitro cytotoxicity assay of simeprevir acidic and oxidative degradation products” (RSC Advances, 2020).
Where two headings read alike, the source gives them in different places. One block for each molecule: values may come before it.

Experiments:
[1] = system: Human Skin Fibroblast (HSF) cell line; experiment: SRB cytotoxicity (cell viability) assay; format: cell-based; settings: Homo sapiens; HSF cells, SRB assay, 72 h exposure, 0.01–100 μM
Description: (§1) Human Skin Fibroblast cell line was obtained from Nawah Scientific Inc., (Mokatam, Cairo, Egypt). Cells were maintained in DMEM media supplemented with […] of streptomycin, 100 units per mL of penicillin and 10% of heat-inactivated fetal bovine serum in humidified, 5% (v/v) CO2 atmosphere at 37 °C.
(§2) Absorbance was measured in the cytotoxicity assay at 540 nm on a BMG LABTECH®-FLUOstar Omega microplate reader (Ortenberg, Germany).
(§3) Cell viability was assessed by SRB assay.[25] Aliquots of 100 μL cell suspension (5 × 10^3 cells) were in 96-well plates and incubated in complete media for 24 h. Cells were treated with another aliquot of 100 μL media containing (DP 1, DP 2, DP 3, DP 4, DP 5 and Doxorubicin as positive control) at various concentrations ranging from (0.01, 0.1, 1, 10, 100 μm). After 72 h of drug exposure, cells were fixed by replacing media with 150 μL of 10% TCA and incubated at 4 °C for 1 h. The TCA solution was removed, and the cells were washed 5 times with distilled water. Aliquots of 70 μL SRB solution (0.4% w/v) were added and incubated in a dark place at room temperature for 10 min. Plates were washed 3 times with 1% acetic acid and allowed to air-dry overnight. Then, 150 μL of Tris (10 mM) was added to dissolve protein-bound SRB stain; the absorbance was measured at 540 nm using microplate reader. The percentage of cell viability was calculated by using the following formula:[26] [drawing 1]
(§4) Cytotoxicity assay was carried out to confirm the in silico toxicity prediction study results. As an in vitro method to monitor the potential toxicity and/or safety of simeprevir and its degradation products (DP 1, DP 2, DP 3, DP 4 and DP 5), against Human Skin Fibroblast (HSF) cell line. SRB assay was used to assess the effect of these compounds on the viability and proliferation of HSF cell line (Table S1 ^†), in addition to taking images using the optical microscope to register any change on the tested cells.
(§5) The percentage of cell viability was measured at five different concentrations (0.01, 0.1, 1, 10 and 100 μM) in comparison with doxorubicin as a standard drug (positive control) which is monitored at the same concentration range after incubation for 72 h period.

[2] = SRB cytotoxicity (cell viability) assay; format: cell-based, Human; settings: human, Human Skin Fibroblast (HSF) cells; for viability at 72 h, 0.01 µM / viability at 72 h, 0.1 µM / viability at 72 h, 1 µM / viability at 72 h, 10 µM: n = 3
Description: as §1, §2, §3, §4, §5

[3] = system: Human Skin Fibroblast (HSF) cell line; experiment: Optical microscope stained images of the cytotoxicity assay; format: cell-based; settings: HSF cells, magnification 200×
Description: as §4
The optical microscope stained images were recorded as shown in Fig. 7 comparing the cytotoxic effect of the five degradation products with that of doxorubicin at a concentration of 100 μM. […] This proves that simeprevir acidic and oxidative degradation products are non-toxic up to 100 μM (IC50 > 100 μM).

[4] = Forced degradation study (stress degradation, HPLC); format: physicochemical
Description: The forced degradation studies were carried out on 1 mg mL^−1 in methanol. Acidic hydrolysis was performed by treating the drug with 0.5 M hydrochloric acid for 5 hours, while the basic hydrolysis conditions were 1 M sodium hydroxide for 5 hours. In both cases, the reaction was immersed in a boiling water bath maintained at 100 °C.
Oxidative degradation was performed by treating the drug with 3% hydrogen peroxide for 5 hours and the reaction was immersed in a boiling water bath maintained at 100 °C. In the thermal degradation, simeprevir was subjected to high temperature by placing the drug in a thermostatic oven at 100 °C.
The samples from the acidic and basic hydrolysis stress tests were neutralized and diluted with methanol to achieve final assay concentrations of 100 μg mL^−1. The final sample solutions were filtered through a 0.45 μm membrane before HPLC analysis. All sample solutions were stored at 4 °C in a refrigerator to avoid degradation.
Although, previous reports by Attia et al.[18] and Mohammed et al.[27] uses different basic hydrolysis conditions; 0.1 N NaOH for 3 hours at room temperature and 1 M NaOH for 2 hours at 60 °C; respectively. […] In our report, no peak was observed after HPLC injection of the alkaline degradation samples which is confirmed using TLC and Flash Chromatography; in which only drug peak was detected.

[5] = no reference given; cited from earlier work
[6] = cited from earlier work
[7] = 72 h, n = 3, read-out: Viability % (Mean)

SMILES: COc1ccc2c(OC3C[C@H]4C(=O)OC(=O)[C@@H]4C3)cc(-c3nc(C(C)C)cs3)nc2c1C [DP 1]
IC50 [1]: > 100 µM
viability at 72 h, 0.01 µM ([2]; 72 h): 98.7%
viability at 72 h, 0.1 µM ([2]; 72 h): 96.5%
viability at 72 h, 1 µM ([2]; 72 h): 95.6%
viability at 72 h, 10 µM ([2]; 72 h): 95.2%
viability at 72 h, 100 µM [2, 7]: 92.9%

SMILES: COc1ccc2c(OC3CC4C(=O)NC5CC5C=CCCCCN(C)C(=O)C4C3)cc(-c3nc(C(C)C)cs3)nc2c1C (stereo not shown) [DP 2]
IC50 [1]: > 100 µM
viability at 72 h, 0.01 µM ([2]; 72 h): 98.5%
viability at 72 h, 0.1 µM ([2]; 72 h): 98.5%
viability at 72 h, 1 µM ([2]; 72 h): 97.4%
viability at 72 h, 10 µM ([2]; 72 h): 97.1%
viability at 72 h, 100 µM [2, 7]: 95.6%

SMILES: CN1CCCCC=CC2CC2(C(=O)NS(=O)(=O)C2CC2)NC(=O)C2CC(O)CC2C1=O (stereo not shown) [DP 3]
morphological changes ([3]; 100 μM): slight changes
IC50 [1]: > 100 µM
viability at 72 h, 0.01 µM ([2]; 72 h): 97.7%
viability at 72 h, 0.1 µM ([2]; 72 h): 97.6%
viability at 72 h, 1 µM ([2]; 72 h): 93.4%
viability at 72 h, 10 µM ([2]; 72 h): 91.1%
viability at 72 h, 100 µM [2, 7]: 90.9%
viability at 72 h, 100 µM ([2]; single replicate, read-out: cell viability in one of the replicates): 89.9%

SMILES: COc1ccc2ccc(-c3scc(C(C)C)[n+]3[O-])[n+]([O-])c2c1CO [DP 4]
IC50 [1]: > 100 µM
viability at 72 h, 0.01 µM ([2]; 72 h): 96.1%
viability at 72 h, 0.1 µM ([2]; 72 h): 93.9%
viability at 72 h, 1 µM ([2]; 72 h): 93.1%
viability at 72 h, 10 µM ([2]; 72 h): 92.1%
viability at 72 h, 100 µM [2, 7]: 92.7%

SMILES: COc1ccc2ccc(-c3scc(C(C)C)[n+]3[O-])[n+]([O-])c2c1C [DP 5]
IC50 [1]: > 100 µM
viability at 72 h, 0.01 µM ([2]; 72 h): 96.3%
viability at 72 h, 0.1 µM ([2]; 72 h): 96.8%
viability at 72 h, 1 µM ([2]; 72 h): 93.7%
viability at 72 h, 10 µM ([2]; 72 h): 93%
viability at 72 h, 100 µM [2, 7]: 92.5%

SMILES: COc1cccc2c1C(=O)c1c(O)c3c(c(O)c1C2=O)C[C@@](O)(C(=O)CO)C[C@@H]3O[C@H]1C[C@H](N)[C@H](O)[C@H](C)O1 [Doxorubicin, reference compound]
morphological changes ([3]; 0.1 μM): no occurrence of morphological changes
IC50 [1]: 1.4 µM
viability at 72 h, 0.01 µM ([2]; 72 h): 99.5%
viability at 72 h, 0.1 µM ([2]; 72 h): 98.4%
viability at 72 h, 1 µM ([2]; 72 h): 59.9%
viability at 72 h, 10 µM ([2]; 72 h): 15.5%
viability at 72 h, 100 µM [2, 7]: 3.29%

% Degradation, acidic degradation ([4]; 0.5 M HCl at 100 °C, 5 hours): 26.63%
% Degradation, alkaline degradation ([4]; 1 M NaOH at 100 °C, 5 hours): No degradation
% Degradation, oxidative degradation ([4]; 3% w/v H2O2 at 100 °C, 5 hours): 21.87%
% Degradation, thermal degradation ([4]; Oven at 100 °C, 10 hours): No degradation
SMILES: COc1ccc2c(O[C@@H]3C[C@H]4C(=O)N[C@]5(C(=O)NS(=O)(=O)C6CC6)C[C@H]5/C=C\CCCCN(C)C(=O)[C@@H]4C3)cc(-c3nc(C(C)C)cs3)nc2c1C [Simeprevir]
pKa [5]: 5.9
degradation percentage, basic hydrolysis ([6]; 0.1 N NaOH for 3 hours at room temperature, ref 18 (Attia et al.)): 35.55%
degradation percentage, basic hydrolysis ([6]; 1 M NaOH for 2 hours at 60 °C, ref 27 (Mohammed et al.)): 39.80%
